In ChEMBL document CHEMBL5338751, “Discovery of the First-in-Class Intestinal Restricted FXR and FABP1 Dual Modulator ZLY28 for the Treatment of Nonalcoholic Fatty Liver Disease” (J Med Chem, 2023):
Calls of active or inactive are those of the source. The rule behind the calls is not given here.

Tests used:
[1] = biological target: T1, Fatty acid-binding protein, liver (Homo sapiens) (UniProt P07148); assay: Displacement of 8-anilino-1-naphthalene-sulfonic acid from FABP1 (unknown origin) at 10 uM incubated for 3 mins by fluorescence based assay relative to control
T1 sequence (whole entry): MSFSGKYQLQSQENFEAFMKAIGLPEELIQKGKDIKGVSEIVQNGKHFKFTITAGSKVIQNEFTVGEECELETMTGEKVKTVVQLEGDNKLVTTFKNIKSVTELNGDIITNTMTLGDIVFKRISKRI

[2] = biological target: T2, Fatty acid-binding protein, liver (Homo sapiens, UniProt P07148); assay: Displacement of 8-anilino-1-naphthalene-sulfonic acid from FABP1 (unknown origin) incubated for 3 mins by fluorescence based assay
T2 sequence (P07148 whole entry): T1 sequence (whole entry)

Bile acid receptor [3] = biological target: T3, Bile acid receptor (Homo sapiens, UniProt Q96RI1); assay: Agonist activity at FXR-LBD (unknown origin) using fluorescein-coactivator peptide incubated for 3 hrs by TR-FRET assay
T3 sequence (Q96RI1 whole entry): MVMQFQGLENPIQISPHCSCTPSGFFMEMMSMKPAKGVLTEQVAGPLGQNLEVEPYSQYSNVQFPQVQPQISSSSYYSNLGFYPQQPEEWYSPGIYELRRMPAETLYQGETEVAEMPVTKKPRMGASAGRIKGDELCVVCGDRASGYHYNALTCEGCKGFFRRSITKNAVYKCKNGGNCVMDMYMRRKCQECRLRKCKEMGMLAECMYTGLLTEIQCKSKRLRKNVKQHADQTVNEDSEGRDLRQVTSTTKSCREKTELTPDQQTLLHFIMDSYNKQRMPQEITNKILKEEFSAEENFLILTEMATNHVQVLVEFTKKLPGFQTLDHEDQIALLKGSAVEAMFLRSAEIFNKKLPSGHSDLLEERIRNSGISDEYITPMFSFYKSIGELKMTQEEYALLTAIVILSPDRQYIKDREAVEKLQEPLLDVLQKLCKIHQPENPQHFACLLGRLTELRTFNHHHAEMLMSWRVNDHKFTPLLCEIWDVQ

[4] = biological target: Oxysterols receptor LXR-beta (Homo sapiens, UniProt P55055); assay: Inhibition of Gal-DBD and NHRLBD fused LXRbeta (unknown origin) transfected in African green monkey CV-1 cells by luciferase assay; type: cell-based
[5] = biological target: Oxysterols receptor LXR-alpha (Homo sapiens, UniProt Q13133); assay: Inhibition of Gal-DBD and NHRLBD fused LXRalpha (unknown origin) transfected in African green monkey CV-1 cells by luciferase assay; type: cell-based
[6] = biological target: T4, Peroxisome proliferator-activated receptor alpha (Homo sapiens, UniProt Q07869); assay: Inhibition of pBIND-PPARalpha (unknown origin) transfected in HepG2 cells incubated for 18 hrs in presence of […] by dual luciferase reporter assay; type: cell-based
T4 sequence (Q07869 whole entry): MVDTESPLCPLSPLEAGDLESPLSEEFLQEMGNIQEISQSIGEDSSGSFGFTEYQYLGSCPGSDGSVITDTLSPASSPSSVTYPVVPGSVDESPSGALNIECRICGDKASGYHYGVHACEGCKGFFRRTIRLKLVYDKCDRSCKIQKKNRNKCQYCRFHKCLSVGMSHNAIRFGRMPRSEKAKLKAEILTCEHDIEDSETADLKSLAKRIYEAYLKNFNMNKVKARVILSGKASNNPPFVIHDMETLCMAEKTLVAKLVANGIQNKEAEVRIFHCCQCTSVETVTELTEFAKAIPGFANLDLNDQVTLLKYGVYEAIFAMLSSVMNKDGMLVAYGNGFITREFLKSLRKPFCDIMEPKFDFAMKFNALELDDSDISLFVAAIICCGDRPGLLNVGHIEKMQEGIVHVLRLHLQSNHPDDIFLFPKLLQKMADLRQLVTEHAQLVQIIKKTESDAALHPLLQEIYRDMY

Bile acid receptor [7] = biological target: T3, Bile acid receptor; assay: Agonist activity at FXR (unknown origin) expressed in human HepG2 cells co-transfected with human RXR assessed as luciferase activity incubated for 24 hrs by cell-based luciferase assay
[8] = biological target: T5, Peroxisome proliferator-activated receptor gamma (Homo sapiens, UniProt P37231); assay: Inhibition of PPARgamma (unknown origin) transfected in HEK293 cells incubated for 18 hrs in presence of rosiglitazone by dual luciferase reporter assay; type: cell-based
T5 sequence (P37231 whole entry): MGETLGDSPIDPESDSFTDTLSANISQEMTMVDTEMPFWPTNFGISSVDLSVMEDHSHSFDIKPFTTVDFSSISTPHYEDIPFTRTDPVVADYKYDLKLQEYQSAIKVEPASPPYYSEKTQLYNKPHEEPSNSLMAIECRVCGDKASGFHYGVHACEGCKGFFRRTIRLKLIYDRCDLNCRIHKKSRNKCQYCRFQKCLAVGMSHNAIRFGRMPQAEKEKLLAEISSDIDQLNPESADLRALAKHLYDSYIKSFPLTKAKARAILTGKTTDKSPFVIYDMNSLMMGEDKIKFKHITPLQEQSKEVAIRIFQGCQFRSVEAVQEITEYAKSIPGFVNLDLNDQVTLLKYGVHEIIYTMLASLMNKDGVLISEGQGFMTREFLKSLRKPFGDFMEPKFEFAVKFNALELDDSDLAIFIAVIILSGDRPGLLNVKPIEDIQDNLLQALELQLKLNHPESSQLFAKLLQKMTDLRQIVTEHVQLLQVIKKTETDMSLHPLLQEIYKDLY

[9] = Inhibition of PPARbeta/delta (unknown origin) transfected in HepG2 cells incubated for 18 hrs in presence of GW0742 by dual luciferase reporter assay; settings: Homo sapiens, HepG2, 18 h
[10] = biological target: Thyroid hormone receptor beta (Homo sapiens, UniProt P10828); assay: Activation of pGAL4 fused THRbeta LBD (unknown origin) transfected in HEK293 cells cotransfected with pG5-Luc and pRL-TK incubated for 24 hrs by Renilla/Firefly based dual-glo luciferase assay; type: cell-based
[11] = Metabolic stability in Sprague-Dawley rat liver microsomes assessed as parent compound remaining incubated for 1 hr by LC-MS analysis; type: ADME, Microsome; settings: read-out: Stability
Progesterone receptor = Progesterone receptor (Homo sapiens, UniProt P06401); assay: Activation of Gal-DBD and NHRLBD fused PR (unknown origin) transfected in African green monkey CV-1 cells by luciferase reporter assay; type: cell-based
[12] = Metabolic stability in mouse liver microsomes assessed as parent compound remaining incubated for 1 hr by LC-MS analysis; type: ADME, Microsome; settings: read-out: Stability
[13] = biological target: G-protein coupled bile acid receptor 1 (Homo sapiens, UniProt Q8TDU6); assay: Activation of TGR5 (unknown origin) transfected in human NCI-H716 cells assessed as increase in cAMP production incubated for 24 hrs by HTR-FRET assay; type: functional, cell-based
[14] = Metabolic stability in human liver microsomes assessed as parent compound remaining incubated for 1 hr by LC-MS analysis; type: ADME, Microsome; settings: read-out: Stability
[15] = Metabolic stability in Beagle dog liver microsomes assessed as parent compound remaining incubated for 1 hr by LC-MS analysis; type: ADME, Canis lupus familiaris, Microsome; settings: read-out: Stability
[16] = Drug concentration in C57BL/6 mouse liver at 20 mg/kg, po administered for 5 days and measured after 1 hr post final dose by LC-MS analysis; type: ADME, organism-based; settings: time 5 day, read-out: Ct
[17] = Drug concentration in C57BL/6 mouse plasma at 20 mg/kg, po administered for 5 days and measured after 1 hr post final dose by LC-MS analysis; type: ADME, organism-based; settings: time 5 day
[18] = Metabolic stability in rhesus monkey liver microsomes assessed as parent compound remaining incubated for 1 hr by LC-MS analysis; type: ADME, Macaca mulatta, Microsome; settings: read-out: Stability
[19] = biological target: Mineralocorticoid receptor (Homo sapiens, UniProt P08235); assay: Activation of Gal-DBD and NHRLBD fused MR (unknown origin) transfected in African green monkey CV-1 cells by luciferase reporter assay; type: cell-based
Androgen receptor = Androgen receptor (Homo sapiens, UniProt P10275); assay: Activation of Gal-DBD and NHRLBD fused AR (unknown origin) transfected in African green monkey CV-1 cells by luciferase reporter assay; type: cell-based
[20] = biological target: Fatty acid-binding protein, adipocyte (Homo sapiens, UniProt P15090); assay: Displacement of 8-anilino-1-naphthalene-sulfonic acid from FABP4 (unknown origin) incubated for 3 mins by fluorescence based assay
[21] = Drug concentration in C57BL/6 mouse ileum at 20 mg/kg, po administered for 5 days and measured after 1 hr post final dose by LC-MS analysis; type: ADME, organism-based; settings: time 5 day, read-out: Ct
[22] = biological target: Retinoic acid receptor alpha (Homo sapiens, UniProt P10276); assay: Activation of Gal-DBD and NHRLBD fused RARalpha (unknown origin) transfected in African green monkey CV-1 cells by luciferase reporter assay; type: cell-based
[23] = biological target: Retinoic acid receptor gamma (Homo sapiens, UniProt P13631); assay: Activation of Gal-DBD and NHRLBD fused RARgamma (unknown origin) transfected in African green monkey CV-1 cells by luciferase reporter assay; type: cell-based
[24] = biological target: Fatty acid-binding protein, heart (Homo sapiens, UniProt P05413); assay: Displacement of 8-anilino-1-naphthalene-sulfonic acid from FABP3 (unknown origin) incubated for 3 mins by fluorescence based assay
Mus musculus [25] = assay: Anti-NASH activity in western diet and CCl4-induced nonalcoholic steatohepatitis C57BL/6 mouse assessed as alleviation of lobular inflammation at 20 mg/kg, po administered for 12 weeks starting from week 8 and change in dose for every 5 days; type: functional, organism-based; settings: time 4.0 weeks
Mus musculus [26] = assay: Anti-NASH activity in western diet and CCl4-induced nonalcoholic steatohepatitis C57BL/6 mouse assessed as alleviation of hepatic steatosis at 20 mg/kg, po administered for 12 weeks starting from week 8 and change in dose for every 5 days; type: functional, organism-based; settings: time 4.0 weeks

Chain of Oxysterols receptor LXR-beta (P55055 whole entry, the tested form may be a part): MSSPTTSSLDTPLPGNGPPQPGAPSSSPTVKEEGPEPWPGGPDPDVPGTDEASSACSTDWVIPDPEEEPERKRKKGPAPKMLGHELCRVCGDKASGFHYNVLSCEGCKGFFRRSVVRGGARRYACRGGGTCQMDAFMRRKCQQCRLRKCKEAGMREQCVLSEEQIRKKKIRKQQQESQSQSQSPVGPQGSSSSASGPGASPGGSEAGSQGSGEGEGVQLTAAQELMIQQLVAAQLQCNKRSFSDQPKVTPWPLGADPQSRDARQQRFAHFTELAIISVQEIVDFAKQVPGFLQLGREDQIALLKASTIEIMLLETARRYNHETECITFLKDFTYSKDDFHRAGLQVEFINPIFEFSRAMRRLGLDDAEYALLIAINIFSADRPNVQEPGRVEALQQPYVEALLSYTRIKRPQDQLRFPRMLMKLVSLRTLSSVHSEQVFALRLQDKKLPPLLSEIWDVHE
Chain of Oxysterols receptor LXR-alpha (Q13133 whole entry, the tested form may be a part): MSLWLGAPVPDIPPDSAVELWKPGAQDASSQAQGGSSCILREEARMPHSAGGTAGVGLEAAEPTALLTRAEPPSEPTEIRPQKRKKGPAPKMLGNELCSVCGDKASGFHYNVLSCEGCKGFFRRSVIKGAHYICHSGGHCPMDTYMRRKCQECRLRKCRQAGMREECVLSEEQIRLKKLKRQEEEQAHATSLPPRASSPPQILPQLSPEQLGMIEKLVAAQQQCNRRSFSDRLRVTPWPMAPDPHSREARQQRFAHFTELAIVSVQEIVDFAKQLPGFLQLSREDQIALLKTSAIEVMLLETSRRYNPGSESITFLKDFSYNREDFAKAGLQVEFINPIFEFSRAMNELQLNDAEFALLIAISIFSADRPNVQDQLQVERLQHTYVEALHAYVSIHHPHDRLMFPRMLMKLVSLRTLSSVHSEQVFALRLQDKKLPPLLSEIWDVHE
Chain of Fatty acid-binding protein, adipocyte (P15090 whole entry): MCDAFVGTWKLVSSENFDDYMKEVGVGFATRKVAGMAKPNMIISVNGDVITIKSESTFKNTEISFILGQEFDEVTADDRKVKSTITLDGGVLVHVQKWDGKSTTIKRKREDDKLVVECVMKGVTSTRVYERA
Chain of Fatty acid-binding protein, heart (P05413 whole entry): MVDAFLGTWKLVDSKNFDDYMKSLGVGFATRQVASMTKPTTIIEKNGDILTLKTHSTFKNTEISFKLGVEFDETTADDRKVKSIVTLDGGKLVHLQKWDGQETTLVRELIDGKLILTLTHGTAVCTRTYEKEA
Chain of Androgen receptor (P10275 whole entry, the tested form may be a part): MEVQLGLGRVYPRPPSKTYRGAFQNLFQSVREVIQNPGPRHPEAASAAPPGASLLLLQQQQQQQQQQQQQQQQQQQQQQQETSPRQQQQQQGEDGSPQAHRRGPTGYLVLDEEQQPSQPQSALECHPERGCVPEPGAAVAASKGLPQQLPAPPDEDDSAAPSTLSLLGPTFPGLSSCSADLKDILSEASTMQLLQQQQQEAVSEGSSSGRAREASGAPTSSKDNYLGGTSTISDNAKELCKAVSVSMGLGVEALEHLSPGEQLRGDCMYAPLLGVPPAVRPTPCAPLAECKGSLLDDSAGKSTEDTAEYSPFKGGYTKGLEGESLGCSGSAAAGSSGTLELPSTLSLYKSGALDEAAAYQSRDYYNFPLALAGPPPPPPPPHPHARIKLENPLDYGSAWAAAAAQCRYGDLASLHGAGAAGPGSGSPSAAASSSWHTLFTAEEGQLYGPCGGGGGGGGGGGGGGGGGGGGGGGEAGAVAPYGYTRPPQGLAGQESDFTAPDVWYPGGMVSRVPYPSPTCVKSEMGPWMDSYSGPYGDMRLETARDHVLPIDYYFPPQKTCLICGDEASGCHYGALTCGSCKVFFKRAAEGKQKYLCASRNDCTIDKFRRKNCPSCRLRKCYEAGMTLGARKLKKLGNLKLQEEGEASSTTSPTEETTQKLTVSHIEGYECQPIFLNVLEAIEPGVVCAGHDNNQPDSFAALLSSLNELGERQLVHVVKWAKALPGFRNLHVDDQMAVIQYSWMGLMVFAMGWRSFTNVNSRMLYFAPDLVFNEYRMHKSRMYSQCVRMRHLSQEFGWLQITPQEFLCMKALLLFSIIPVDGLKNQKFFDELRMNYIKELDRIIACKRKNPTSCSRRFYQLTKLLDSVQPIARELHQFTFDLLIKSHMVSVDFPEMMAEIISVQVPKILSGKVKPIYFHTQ
Chain of G-protein coupled bile acid receptor 1 (Q8TDU6 whole entry): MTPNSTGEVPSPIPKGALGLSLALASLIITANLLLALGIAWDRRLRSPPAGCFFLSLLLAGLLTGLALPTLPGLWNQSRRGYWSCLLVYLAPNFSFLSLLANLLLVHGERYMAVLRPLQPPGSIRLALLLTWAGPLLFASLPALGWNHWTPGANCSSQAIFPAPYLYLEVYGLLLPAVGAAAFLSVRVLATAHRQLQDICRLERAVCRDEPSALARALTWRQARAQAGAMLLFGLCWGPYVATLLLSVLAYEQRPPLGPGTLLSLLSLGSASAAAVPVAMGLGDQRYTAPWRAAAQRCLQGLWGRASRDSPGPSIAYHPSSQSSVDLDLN
Chain of Progesterone receptor (P06401 whole entry, the tested form may be a part): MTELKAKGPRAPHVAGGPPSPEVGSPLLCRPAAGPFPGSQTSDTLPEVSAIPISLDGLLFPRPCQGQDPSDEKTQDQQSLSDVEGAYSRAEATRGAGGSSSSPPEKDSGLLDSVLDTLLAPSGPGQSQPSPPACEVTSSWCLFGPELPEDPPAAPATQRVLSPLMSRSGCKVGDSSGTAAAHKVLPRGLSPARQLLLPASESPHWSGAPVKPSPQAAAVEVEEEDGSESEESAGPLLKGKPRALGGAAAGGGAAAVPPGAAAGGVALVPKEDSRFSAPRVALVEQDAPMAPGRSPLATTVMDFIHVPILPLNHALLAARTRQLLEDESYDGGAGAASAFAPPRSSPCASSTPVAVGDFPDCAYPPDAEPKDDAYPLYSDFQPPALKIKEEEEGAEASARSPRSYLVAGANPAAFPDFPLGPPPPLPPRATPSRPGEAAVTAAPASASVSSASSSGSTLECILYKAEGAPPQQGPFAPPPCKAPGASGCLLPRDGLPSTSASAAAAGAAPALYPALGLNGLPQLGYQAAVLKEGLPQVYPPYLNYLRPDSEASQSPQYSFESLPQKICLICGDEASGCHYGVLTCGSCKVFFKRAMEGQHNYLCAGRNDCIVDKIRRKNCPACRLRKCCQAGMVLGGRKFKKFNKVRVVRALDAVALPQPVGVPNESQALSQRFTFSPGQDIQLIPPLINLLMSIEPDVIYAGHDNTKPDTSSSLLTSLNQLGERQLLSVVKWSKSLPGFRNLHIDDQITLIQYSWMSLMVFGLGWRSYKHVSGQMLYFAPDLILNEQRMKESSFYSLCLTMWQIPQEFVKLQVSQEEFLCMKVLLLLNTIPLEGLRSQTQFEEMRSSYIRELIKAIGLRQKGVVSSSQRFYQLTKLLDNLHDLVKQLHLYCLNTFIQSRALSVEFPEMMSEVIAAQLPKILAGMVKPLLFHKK
Chain of Mineralocorticoid receptor (P08235 whole entry, the tested form may be a part): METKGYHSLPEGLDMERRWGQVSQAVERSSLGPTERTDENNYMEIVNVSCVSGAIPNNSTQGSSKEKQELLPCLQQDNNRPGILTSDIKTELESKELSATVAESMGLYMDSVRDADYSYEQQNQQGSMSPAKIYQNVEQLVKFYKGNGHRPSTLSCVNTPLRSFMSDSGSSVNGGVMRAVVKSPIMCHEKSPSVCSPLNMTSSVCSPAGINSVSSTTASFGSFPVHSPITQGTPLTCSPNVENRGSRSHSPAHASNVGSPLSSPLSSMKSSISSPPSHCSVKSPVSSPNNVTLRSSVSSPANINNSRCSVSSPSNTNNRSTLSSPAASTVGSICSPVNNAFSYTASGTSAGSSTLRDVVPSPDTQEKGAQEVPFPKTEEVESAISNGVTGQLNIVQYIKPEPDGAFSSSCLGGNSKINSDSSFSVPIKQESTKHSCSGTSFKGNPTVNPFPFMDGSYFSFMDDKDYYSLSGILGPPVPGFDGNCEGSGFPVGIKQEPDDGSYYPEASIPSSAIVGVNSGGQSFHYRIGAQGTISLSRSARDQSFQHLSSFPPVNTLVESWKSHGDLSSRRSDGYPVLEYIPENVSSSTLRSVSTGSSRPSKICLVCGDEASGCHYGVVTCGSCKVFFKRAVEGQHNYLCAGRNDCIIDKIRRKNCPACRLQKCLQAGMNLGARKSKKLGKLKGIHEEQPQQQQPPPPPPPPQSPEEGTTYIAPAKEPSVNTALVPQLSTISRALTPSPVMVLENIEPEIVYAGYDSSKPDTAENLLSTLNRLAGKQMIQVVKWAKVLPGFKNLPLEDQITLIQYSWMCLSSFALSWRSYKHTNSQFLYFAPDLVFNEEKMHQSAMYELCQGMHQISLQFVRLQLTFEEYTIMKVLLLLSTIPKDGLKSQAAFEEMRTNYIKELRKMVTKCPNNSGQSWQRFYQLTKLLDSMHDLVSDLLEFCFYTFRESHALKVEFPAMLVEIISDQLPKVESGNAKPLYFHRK
Chain of Retinoic acid receptor alpha (P10276 whole entry, the tested form may be a part): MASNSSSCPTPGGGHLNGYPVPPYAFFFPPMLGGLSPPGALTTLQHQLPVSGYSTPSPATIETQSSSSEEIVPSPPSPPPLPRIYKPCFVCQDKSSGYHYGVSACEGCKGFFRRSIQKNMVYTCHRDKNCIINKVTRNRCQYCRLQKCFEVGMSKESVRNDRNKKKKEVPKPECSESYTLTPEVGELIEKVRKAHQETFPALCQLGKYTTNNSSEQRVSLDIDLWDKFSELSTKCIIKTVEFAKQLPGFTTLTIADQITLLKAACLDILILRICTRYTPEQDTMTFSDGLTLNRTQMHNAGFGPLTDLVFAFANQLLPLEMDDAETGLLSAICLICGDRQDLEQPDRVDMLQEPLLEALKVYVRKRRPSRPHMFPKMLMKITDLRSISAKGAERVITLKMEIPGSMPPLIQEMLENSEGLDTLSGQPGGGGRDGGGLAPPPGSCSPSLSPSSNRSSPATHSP

CC(C)c1onc(-c2c(Cl)cccc2Cl)c1COc1ccc(/C=C/c2cccc(C(=O)O)c2)c(Cl)c1
inhibition [1]: 35.2% | IC50 [2]: 15.3 µM

O=C(O)Cc1ccc(-c2cccc(OCc3c(-c4c(Cl)cccc4Cl)noc3C3CC3)c2)cc1
inhibition [1]: 9.5% | EC50 (Bile acid receptor [3]): > 10 µM

CCc1c(-c2ccccc2)c(-c2ccccc2)nn1-c1ccccc1-c1cccc(OCC(=O)O)c1
EC50 [4]: > 10 µM | EC50 [5]: > 10 µM | IC50 [6]: > 10 µM | EC50 (Bile acid receptor [7]): > 10 µM | inhibition [1]: 72.7% | EC50 (Bile acid receptor [3]): > 10 µM | IC50 [8]: > 10 µM | IC50 [2]: 4 µM | IC50 [9]: > 10 µM | EC50 [10]: > 10 µM

O=C(O)Cc1ccc(-c2ccc(OCc3c(-c4c(Cl)cccc4Cl)noc3C3CC3)cc2)cc1
remaining at 1 h [11]: 86.8% | EC50 (Progesterone receptor): > 10 µM | remaining at 1 h [12]: 74.3% | EC50 [4]: > 10 µM | EC50 [5]: > 10 µM | EC50 [13]: > 10 µM | remaining at 1 h [14]: 83.6% | remaining at 1 h [15]: 69.1% | concentration at 120 h [16]: 718 ng/g | concentration at 120 h [17]: 2530 ng/mL | IC50 [2]: 2.9 µM | remaining at 1 h [18]: 64.5% | EC50 [19]: > 10 µM | EC50 (Androgen receptor): > 10 µM | IC50 [20]: 5.6 µM | concentration at 120 h [21]: 158 ng/g | EC50 [22]: > 10 µM | EC50 [23]: > 10 µM | IC50 [24]: > 30 µM

O=C(O)CCc1cccc(-c2ccc(OCc3c(-c4c(Cl)cccc4Cl)noc3C3CC3)cc2)c1
IC50 [2]: 3.3 µM

CC(C)c1onc(-c2c(Cl)cccc2Cl)c1COc1ccc(-c2cccc(C3(C(=O)O)CC3)c2)cc1
remaining at 1 h [11]: 41.1% | remaining at 1 h [12]: 35.6%

CC(Oc1ccc(-c2ccc(OCc3c(-c4c(Cl)cccc4Cl)noc3C3CC3)cc2)cc1)C(=O)O (centres undefined)
EC50 (Bile acid receptor [7]): 3.51 µM | inhibition [1]: 69.4% | EC50 (Bile acid receptor [3]): 0.32 µM | IC50 [2]: 3.6 µM

O=C(O)COc1cccc(-c2ccc(OCc3c(-c4c(Cl)cccc4Cl)noc3C3CC3)cc2)c1
EC50 (Bile acid receptor [7]): 1.85 µM | inhibition [1]: 67.1% | EC50 (Bile acid receptor [3]): 0.26 µM | IC50 [2]: 3.8 µM

CC(C)(Oc1ccc(-c2ccc(OCc3c(-c4c(Cl)cccc4Cl)noc3C3CC3)cc2)cc1)C(=O)O
IC50 [2]: 5.7 µM

O=C(O)C1(c2cccc(-c3cccc(OCc4c(-c5c(Cl)cccc5Cl)noc4C4CC4)c3)c2)CC1
EC50 (Bile acid receptor [3]): > 10 µM

O=C(O)COc1ccc(-c2ccc(OCc3c(-c4c(Cl)cccc4Cl)noc3C3CC3)cc2)cc1
remaining at 1 h [11]: 68.3% | remaining at 1 h [12]: 56.8% | IC50 [2]: 4.2 µM

CC(C)(C(=O)O)c1cccc(-c2ccc(OCc3c(-c4c(Cl)cccc4Cl)noc3C3CC3)cc2)c1
inhibition [1]: 85.8% | EC50 (Bile acid receptor [3]): 0.811 µM | IC50 [2]: 1.5 µM

O=C(O)Cc1ccc(-c2ccc(OCc3c(-c4c(Cl)cccc4Cl)noc3C3CC3)cc2Cl)cc1
IC50 [2]: 4.3 µM

O=C(O)Cc1cccc(N2CCC(OCc3c(-c4c(Cl)cccc4Cl)noc3C3CC3)CC2)c1
EC50 (Bile acid receptor [3]): > 10 µM

O=C(O)CCc1ccc(-c2ccc(OCc3c(-c4c(Cl)cccc4Cl)noc3C3CC3)cc2)cc1
remaining at 1 h [11]: 26.1% | remaining at 1 h [12]: 19.7% | IC50 [2]: 1.4 µM

CC[C@H]1[C@@H](O)[C@@H]2[C@H](CC[C@]3(C)[C@@H]([C@H](C)CCC(=O)O)CC[C@@H]23)[C@@]2(C)CC[C@@H](O)C[C@@H]12
Activity (Mus musculus [25]): Active | Activity (Mus musculus [26]): Active
